Data on 1 compound can be found in patent publication US20230172930A1, “USE OF COMPLEMENT FACTOR D INHIBITORS ALONE OR IN COMBINATION WITH ANTI-C5 ANTIBODIES FOR TREATMENT OF PAROXYSMAL NOCTURNAL HEMOGLOBINURIA” (Alexion Pharmaceuticals, Inc., priority 2020, published 2023).

This series is described as follows: Phase 2 study: plasma danicopan pharmacokinetics (LC-MS/MS). The format is in vivo, human. An excerpt:
The mean (% CV) Ctrough value was 105 (57) ng/mL during these intensive sampling days. Sampling at through times over the rest of the study duration under less controlled conditions yielded a mean (% CV) Ctrough value of 150 (59) ng/mL.

In the case of `CC(=O)c1nn(CC(=O)N2C[C@H](F)C[C@H]2C(=O)Nc2cccc(Br)n2)c2ccc(-c3cnc(C)nc3)cc12` [Danicopan, danicopan], the “Ctrough, mean (% CV)” value by setting is: (intensive sampling days, Week 7) 105 (57) ng/mL; (trough sampling over the rest of the study, less controlled conditions) 150 (59) ng/mL.
